pIC50: −log10 of the molar value. Where two headings read alike, the source gives them in different places.
How the values were obtained:
Format in all cases: cell-based
HL-60 cells = assay: CD11b protein expression by flow cytometry, HL-60; settings: non-fused HL-60 cell line, 4 and 7 days of treatment
Method: Four thousand cells per well were seeded 24 h before they were treated with the indicated inhibitor in a 96 MTP. After 4 or 7 days of treatment, cells were washed with PBS and stained with CD11b - APC (BioLegend, San Diego, California, USA) and DAPI (Thermo Fisher Scientific, Waltham, Massachusetts, USA) or AnnexinV – FITC (BioLegend, San Diego, California, USA) and PI solution (Sigma-Aldrich St. Louis, Missouri, USA) using the FACS Canto II (BD Biosciences, Heidelberg, Germany) and data was analyzed with FACSDiva software.

OCI-AML-3 (MLL-WT) cells = assay: Cell proliferation (alamarBlue) OCI-AML-3; settings: Homo sapiens, OCI-AML-3, OCI-AML-3 (MLL-WT), read-out: IC50 proliferation
Method: (§1) Cells were seeded in the optimal growth medium at 4000–5000 cells/well in a 96 MTP and cultured 18–24 h before inhibitor treatment.

ML-2 (MLL-AF6) cells = assay: Cell proliferation (alamarBlue) ML-2; settings: ML-2 (MLL-AF6), read-out: IC50 proliferation
Method: as §1

SEM (MLL-AF4) cells = assay: Cell proliferation (alamarBlue) SEM; settings: SEM (MLL-AF4), read-out: IC50 proliferation
Method: as §1

NOMO-1 (MLL-AF9) cells = assay: Cell proliferation (alamarBlue) NOMO-1; settings: Homo sapiens, NOMO-1, NOMO-1 (MLL-AF9), read-out: IC50 proliferation
Method: as §1

EOL-1 (MLL-TD) cells = assay: Cell proliferation (alamarBlue) EOL-1; settings: Homo sapiens, EOL1, EOL-1 (MLL-TD), read-out: IC50 proliferation
Method: as §1

HL-60 (MLL-WT) cells = assay: Cell proliferation (alamarBlue) HL-60; settings: Homo sapiens, HL-60 (MLL-WT), read-out: IC50 proliferation
Method: as §1

RS4;11 (MLL-AF4) cells = assay: Cell proliferation (alamarBlue) RS4;11; settings: Homo sapiens, RS4-11, RS4;11 (MLL-AF4), read-out: IC50 proliferation
Method: as §1

MOLM-14 (MLL-AF9) cells = assay: Cell proliferation (alamarBlue) MOLM-14; settings: Homo sapiens, MOLM-14, MOLM-14 (MLL-AF9), read-out: IC50 proliferation
Method: as §1

MOLM-13 (MLL-AF9) cells = assay: Cell proliferation (alamarBlue) MOLM-13; settings: Homo sapiens, MOLM-13, MOLM-13 (MLL-AF9), read-out: IC50 proliferation
Method: as §1

[1] = system: MV4-11, MOLM-13 and HL-60 cells; assay: Cell cycle analysis (PI, flow cytometry); settings: 4 days of treatment (Figure S2)
Method: Cells were washed with PBS and fixed overnight at − 20 °C with 70% ethanol. Fixed cells were stained with PI solution (Sigma-Aldrich St. Louis, MO, USA) solution containing RNase A (Qiagen, Hilden, Germany). Fluorescence was measured with FACS Canto II (BD Biosciences, Heidelberg, Germany) flow cytometer and data was analyzed with FACSDiva software.

Jurkat (MLL-WT) cells = assay: Cell proliferation (alamarBlue) Jurkat; settings: Homo sapiens, Jurkat (MLL-WT)
Method: as §1

[2] = system: MV4-11, MOLM-13 and HL-60 cells; assay: Cell proliferation, all three tested AML cell lines; settings: 96 h; all tested cell lines (MV4-11, MOLM-13, HL-60), 4 days of treatment (Fig. 1a); read-out: anti-proliferation IC50s
Method: Cells were seeded in the optimal growth medium at 4000–5000 cells/well in a 96 MTP and cultured 18–24 h before inhibitor treatment. Upon treatment with the indicated inhibitor, cells were cultured for 24 h, 96 h, and 168 h and effects on proliferation were determined using alamarBlue Cell Viability Reagent (Thermo Fisher Scientific, Waltham, MA, USA).

[3] = system: OCI-AML-2 (MLL-AF9) cells; assay: Cell proliferation (alamarBlue) OCI-AML-2; settings: Homo sapiens, OCI-AML2, OCI-AML-2 (MLL-AF9), read-out: IC50 proliferation
Method: as §1

OCI-AML-5 (MLL-WT) cells = assay: Cell proliferation (alamarBlue) OCI-AML-5; settings: Homo sapiens, OCI-AML-5, OCI-AML-5 (MLL-WT), read-out: IC50 proliferation
Method: as §1

MV4-11 (MLL-AF4) cells = assay: Cell proliferation (alamarBlue) MV4-11; settings: Homo sapiens, MV4-11, MV4-11 (MLL-AF4), read-out: IC50 proliferation
Method: as §1

KOPN-8 (MLL-ENL) cells = assay: Cell proliferation (alamarBlue) KOPN-8; settings: Homo sapiens, KOPN-8, KOPN-8 (MLL-ENL), read-out: IC50 proliferation
Method: as §1

pIC50 (OCI-AML-3 (MLL-WT) cells; D1): 7.05
pIC50 (OCI-AML-3 (MLL-WT) cells; D4): 6.96
pIC50 (OCI-AML-3 (MLL-WT) cells; D7): 6.74
pIC50 (HL-60 (MLL-WT) cells; 24 h, 1 day of treatment (D1)): 6.85
pIC50 (HL-60 (MLL-WT) cells; 96 h, 4 days of treatment (D4)): 6.96
pIC50 (HL-60 (MLL-WT) cells; 168 h, 7 days of treatment (D7)): 6.62
pIC50 (RS4;11 (MLL-AF4) cells; D1): 6.96
pIC50 (RS4;11 (MLL-AF4) cells; D4): 7.05
pIC50 (RS4;11 (MLL-AF4) cells; D7): 7.05
pIC50 (MOLM-14 (MLL-AF9) cells; D1): 7.40
pIC50 (MOLM-14 (MLL-AF9) cells; D4): 7.40
pIC50 (MOLM-14 (MLL-AF9) cells; D7): 7.15
pIC50 (MOLM-13 (MLL-AF9) cells; D1): 7.15
pIC50 (MOLM-13 (MLL-AF9) cells; D4): 7.22
pIC50 (MOLM-13 (MLL-AF9) cells; D7): 7.15
pIC50 (Jurkat (MLL-WT) cells; D1, read-out: IC50 proliferation): 6.85
pIC50 (Jurkat (MLL-WT) cells; D4, read-out: IC50 proliferation): 7.52
pIC50 (Jurkat (MLL-WT) cells; D7, read-out: IC50 proliferation): 7.52
pIC50 [2]: 6.85 to 7.52
pIC50 ([3]; D1): 7.15
pIC50 ([3]; D4): 6.96
pIC50 ([3]; D7): 7.15
pIC50 (OCI-AML-5 (MLL-WT) cells; D1): 6.80
pIC50 (OCI-AML-5 (MLL-WT) cells; D4): 7.30
pIC50 (OCI-AML-5 (MLL-WT) cells; D7): 7.52
pIC50 (MV4-11 (MLL-AF4) cells; D1): 6.64
pIC50 (MV4-11 (MLL-AF4) cells; D4): 7.15
pIC50 (MV4-11 (MLL-AF4) cells; D7): 6.66
SMILES: COc1cc(F)ccc1-c1cc(Nc2cc(CS(C)(=N)=O)ccn2)ncc1F (stereo not drawn) [BAY 1251152]
CD11b level (HL-60 cells): treatment did
pIC50 (ML-2 (MLL-AF6) cells; D1): 6.96
pIC50 (ML-2 (MLL-AF6) cells; D4): 6.70
pIC50 (ML-2 (MLL-AF6) cells; D7): 6.64
pIC50 (SEM (MLL-AF4) cells; D1): 6.59
pIC50 (SEM (MLL-AF4) cells; D4): 7.05
pIC50 (SEM (MLL-AF4) cells; D7): 6.70
pIC50 (NOMO-1 (MLL-AF9) cells; D1): 6.62
pIC50 (NOMO-1 (MLL-AF9) cells; D4): 7.22
pIC50 (NOMO-1 (MLL-AF9) cells; D7): 7.00
pIC50 (EOL-1 (MLL-TD) cells; D1): 7.15
pIC50 (EOL-1 (MLL-TD) cells; D4): 7.52
pIC50 (EOL-1 (MLL-TD) cells; D7): 7.22
cell cycle effect [1]: decrease of cells in S and G2/M phase with increasing concentrations
pIC50 (KOPN-8 (MLL-ENL) cells; D1): 6.80
pIC50 (KOPN-8 (MLL-ENL) cells; D4): 6.92
pIC50 (KOPN-8 (MLL-ENL) cells; D7): 6.68

Source: article PMC6599250, “Functional diversity of inhibitors tackling the differentiation blockage of MLL-rearranged leukemia” (Journal of Hematology & Oncology, 2019)
